ChEMBL document CHEMBL6114989, “D-morphinan analogs with favorable pharmacokinetic profiles as dual-acting antidepressants” (Eur J Med Chem, 2025)
Calls of active or inactive are those of the source. No cut-off for these calls is given here.

Assays:
[1] = target: T1, Glutamate NMDA receptor; GRIN1/GRIN2A (Homo sapiens, UniProt Q05586+Q12879); assay: Inhibition of human GluN1/GluN2A NMDA receptor expressed in HEK293 cells assessed as reduction in glutamate induced current at -70 mV holding potential by whole-cell patch clamp technique; format: cell-based
[2] = target: Sodium-dependent serotonin transporter (Homo sapiens, UniProt P31645)
[3] = target: T2, Sodium-dependent noradrenaline transporter (Homo sapiens, UniProt P23975); assay: Inhibition of NET (unknown origin) at 10 uM relative to control
[4] = target: T3, Sodium-dependent dopamine transporter (Homo sapiens, UniProt Q01959); assay: Inhibition of DAT (unknown origin) at 10 uM relative to control
Mu-type opioid receptor [5] = target: T4, Mu-type opioid receptor (Homo sapiens, UniProt P35372); assay: Agonist activity at human mu-opioid receptor stably expressed in CHO cells assessed as inhibition of forskolin-induced cAMP accumulation at 30 uM preincubated with compound for 10 mins followed by forskolin induction and measured after 30 mins by LANCE Ultra cAMP assay relative to control; format: functional, cell-based; settings: time 40.0 min
[6] = target: T2, Sodium-dependent noradrenaline transporter; assay: Inhibition of human NET
[7] = target: T3, Sodium-dependent dopamine transporter; assay: Inhibition of DAT (unknown origin)
[8] = target: T1, Glutamate NMDA receptor; GRIN1/GRIN2A; assay: Antagonist activity at human GluN1/GluN2A NMDA receptor expressed in HEK293 cells assessed as reduction in glutamate induced current at -70 mV holding potential by whole-cell patch clamp technique; format: cell-based
[9] = Selectivity index, ratio of IC50 for inhibition of human GluN1/GluN2A NMDA receptor expressed in HEK293 cells to IC50 for inhibition of SERT (unknown origin); format: cell-based
[10] = Metabolic stability in mouse liver microsome assessed as hepatic clearance in presence of NADPH measured upto 60 mins by LC-MS/MS analysis; format: ADME; settings: liver microsomes
[11] = Metabolic stability in mouse liver microsome assessed as intrinsic clearance in presence of NADPH measured upto 60 mins by LC-MS/MS analysis; format: ADME; settings: liver microsomes, read-out: CLH
[12] = Metabolic stability in mouse liver microsome assessed as half life in presence of NADPH measured upto 60 mins by LC-MS/MS analysis; format: ADME; settings: liver microsomes
[13] = Metabolic stability in mouse liver microsome assessed as hepatic extraction ratio in presence of NADPH measured upto 60 mins by LC-MS/MS analysis; format: ADME; settings: liver microsomes, read-out: ERH
[14] = Half life in ICR mouse at 10 mg/kg, po measured upto 24 hrs by LC-MS/MS analysis; format: ADME, organism-based; settings: in vivo
[15] = Tmax in ICR mouse at 10 mg/kg, po measured upto 24 hrs by LC-MS/MS analysis; format: ADME, organism-based; settings: in vivo
[16] = Cmax in ICR mouse at 10 mg/kg, po measured upto 24 hrs by LC-MS/MS analysis; format: ADME, organism-based; settings: in vivo
[17] = AUC (0 to t) in ICR mouse at 10 mg/kg, po measured upto 24 hrs by LC-MS/MS analysis; format: ADME, organism-based; settings: in vivo
[18] = AUC (0 to infinity) in ICR mouse at 10 mg/kg, po measured upto 24 hrs by LC-MS/MS analysis; format: ADME, organism-based; settings: in vivo
[19] = MRT (0 to t) in ICR mouse at 10 mg/kg, po measured upto 24 hrs by LC-MS/MS analysis; format: ADME, organism-based; settings: in vivo
[20] = Half life in ICR mouse at 10 mg/kg, ip measured upto 24 hrs by LC-MS/MS analysis; format: ADME, organism-based; settings: in vivo
[21] = Tmax in ICR mouse at 10 mg/kg, ip measured upto 24 hrs by LC-MS/MS analysis; format: ADME, organism-based; settings: in vivo
[22] = Cmax in ICR mouse at 10 mg/kg, ip measured upto 24 hrs by LC-MS/MS analysis; format: ADME, organism-based; settings: in vivo
[23] = AUC (0 to t) in ICR mouse at 10 mg/kg, ip measured upto 24 hrs by LC-MS/MS analysis; format: ADME, organism-based; settings: in vivo
[24] = AUC (0 to infinity) in ICR mouse at 10 mg/kg, ip measured upto 24 hrs by LC-MS/MS analysis; format: ADME, organism-based; settings: in vivo
[25] = MRT (0 to infinity) in ICR mouse at 10 mg/kg, ip measured upto 24 hrs by LC-MS/MS analysis; format: ADME, organism-based; settings: in vivo
Mus musculus = assay: Antidepressant activity in ip dosed C57BL/6J mouse assessed as reduction in of immobility time by forced swim test; format: functional, organism-based; settings: dose 10-20 mg/kg
Mu-type opioid receptor [26] = target: T4, Mu-type opioid receptor; assay: Agonist activity at human mu-opioid receptor stably expressed in CHO cells assessed as inhibition of forskolin-induced cAMP accumulation preincubated with compound for 10 mins followed by forskolin induction and measured after 30 mins by LANCE Ultra cAMP assay; format: functional, cell-based
[27] = Hepatotoxicity against human HepG2 cells assessed as inhibition of cell proliferation incubated for 48 hrs by celltiter-luminescence assay; format: toxicity, cell-based
[28] = Nephrotoxicity against human HEK293 cells assessed as inhibition of cell proliferation incubated for 48 hrs by celltiter-luminescence assay; format: toxicity, cell-based

T4 sequence (P35372 whole entry): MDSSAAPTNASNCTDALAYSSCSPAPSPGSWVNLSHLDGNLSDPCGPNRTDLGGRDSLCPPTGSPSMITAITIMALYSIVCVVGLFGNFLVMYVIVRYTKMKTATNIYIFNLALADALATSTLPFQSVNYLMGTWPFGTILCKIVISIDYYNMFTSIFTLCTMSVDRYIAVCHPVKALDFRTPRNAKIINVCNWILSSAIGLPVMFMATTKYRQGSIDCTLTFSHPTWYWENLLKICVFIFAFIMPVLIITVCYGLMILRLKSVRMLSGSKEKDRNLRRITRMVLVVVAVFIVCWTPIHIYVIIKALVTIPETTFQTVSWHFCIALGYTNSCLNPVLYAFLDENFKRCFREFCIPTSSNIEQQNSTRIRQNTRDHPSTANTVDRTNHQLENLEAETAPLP
T2 sequence (P23975 whole entry): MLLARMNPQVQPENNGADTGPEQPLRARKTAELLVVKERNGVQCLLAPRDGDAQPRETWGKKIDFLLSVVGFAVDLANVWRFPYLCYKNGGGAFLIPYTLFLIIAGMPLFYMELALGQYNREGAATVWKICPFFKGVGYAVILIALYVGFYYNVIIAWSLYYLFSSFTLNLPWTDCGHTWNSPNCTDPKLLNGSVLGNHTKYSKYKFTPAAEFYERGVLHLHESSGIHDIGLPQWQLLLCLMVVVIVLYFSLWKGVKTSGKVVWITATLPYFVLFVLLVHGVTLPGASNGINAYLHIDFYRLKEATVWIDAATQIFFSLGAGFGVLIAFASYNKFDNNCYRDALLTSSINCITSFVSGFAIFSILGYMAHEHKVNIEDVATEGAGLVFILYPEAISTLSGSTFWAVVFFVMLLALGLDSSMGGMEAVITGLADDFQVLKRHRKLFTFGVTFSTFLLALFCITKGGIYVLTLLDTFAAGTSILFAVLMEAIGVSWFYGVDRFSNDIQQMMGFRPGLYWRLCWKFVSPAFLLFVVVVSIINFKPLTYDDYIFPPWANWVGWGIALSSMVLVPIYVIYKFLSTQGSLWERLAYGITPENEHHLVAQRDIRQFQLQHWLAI
T1 sequence (Q12879 whole entry, other chains not shown): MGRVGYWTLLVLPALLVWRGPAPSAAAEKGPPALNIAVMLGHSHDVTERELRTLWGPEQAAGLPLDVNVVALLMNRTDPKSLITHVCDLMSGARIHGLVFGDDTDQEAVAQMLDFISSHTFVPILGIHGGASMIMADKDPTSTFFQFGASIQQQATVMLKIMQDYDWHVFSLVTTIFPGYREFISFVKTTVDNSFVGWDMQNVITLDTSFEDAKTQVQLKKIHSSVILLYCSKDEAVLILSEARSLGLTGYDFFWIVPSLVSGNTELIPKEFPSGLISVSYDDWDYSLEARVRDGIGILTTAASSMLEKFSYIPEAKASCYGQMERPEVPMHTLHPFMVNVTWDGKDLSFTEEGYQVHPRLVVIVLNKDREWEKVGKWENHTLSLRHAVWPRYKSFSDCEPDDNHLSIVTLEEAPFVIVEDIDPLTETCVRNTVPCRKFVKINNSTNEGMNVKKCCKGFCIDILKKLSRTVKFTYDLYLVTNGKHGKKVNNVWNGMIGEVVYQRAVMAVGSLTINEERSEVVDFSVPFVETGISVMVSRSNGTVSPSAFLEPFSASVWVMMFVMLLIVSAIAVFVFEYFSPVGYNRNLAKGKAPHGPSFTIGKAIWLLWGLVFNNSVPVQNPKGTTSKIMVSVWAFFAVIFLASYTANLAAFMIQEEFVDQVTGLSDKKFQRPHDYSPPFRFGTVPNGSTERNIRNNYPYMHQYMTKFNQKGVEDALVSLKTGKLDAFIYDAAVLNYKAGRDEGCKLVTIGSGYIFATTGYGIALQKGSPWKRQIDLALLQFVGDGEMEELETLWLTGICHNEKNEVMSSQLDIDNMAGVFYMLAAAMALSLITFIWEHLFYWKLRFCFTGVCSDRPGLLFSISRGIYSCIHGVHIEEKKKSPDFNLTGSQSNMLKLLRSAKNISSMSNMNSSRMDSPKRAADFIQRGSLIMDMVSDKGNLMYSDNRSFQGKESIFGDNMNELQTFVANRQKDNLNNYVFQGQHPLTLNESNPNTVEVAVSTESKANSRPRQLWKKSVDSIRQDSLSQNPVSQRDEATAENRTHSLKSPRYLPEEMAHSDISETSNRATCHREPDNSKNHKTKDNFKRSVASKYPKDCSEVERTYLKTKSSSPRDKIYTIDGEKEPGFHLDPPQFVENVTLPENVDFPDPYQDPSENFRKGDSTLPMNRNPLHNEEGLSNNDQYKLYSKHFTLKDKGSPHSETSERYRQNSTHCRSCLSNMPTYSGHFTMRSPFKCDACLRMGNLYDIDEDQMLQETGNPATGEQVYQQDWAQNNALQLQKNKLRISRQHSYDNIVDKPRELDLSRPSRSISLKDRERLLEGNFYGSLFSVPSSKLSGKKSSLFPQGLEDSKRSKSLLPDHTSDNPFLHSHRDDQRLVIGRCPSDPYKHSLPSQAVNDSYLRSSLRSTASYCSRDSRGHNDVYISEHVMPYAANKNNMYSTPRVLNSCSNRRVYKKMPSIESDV
T3 sequence (Q01959 whole entry): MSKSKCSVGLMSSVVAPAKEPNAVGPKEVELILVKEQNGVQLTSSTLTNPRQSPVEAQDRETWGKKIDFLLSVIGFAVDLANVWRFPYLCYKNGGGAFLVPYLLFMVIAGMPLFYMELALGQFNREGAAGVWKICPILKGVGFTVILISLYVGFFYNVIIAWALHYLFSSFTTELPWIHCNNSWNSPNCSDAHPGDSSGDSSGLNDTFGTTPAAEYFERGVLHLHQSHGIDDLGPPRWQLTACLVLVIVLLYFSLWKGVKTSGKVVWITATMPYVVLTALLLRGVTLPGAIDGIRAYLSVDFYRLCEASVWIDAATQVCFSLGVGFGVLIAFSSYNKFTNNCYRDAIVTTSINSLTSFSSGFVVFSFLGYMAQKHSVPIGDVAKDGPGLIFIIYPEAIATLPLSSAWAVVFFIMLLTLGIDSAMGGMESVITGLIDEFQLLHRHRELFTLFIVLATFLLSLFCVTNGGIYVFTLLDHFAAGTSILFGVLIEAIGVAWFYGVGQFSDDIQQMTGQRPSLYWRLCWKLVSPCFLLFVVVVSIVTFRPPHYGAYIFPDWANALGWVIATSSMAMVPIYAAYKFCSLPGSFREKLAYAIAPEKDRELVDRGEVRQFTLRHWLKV
Sodium-dependent serotonin transporter, sequence (P31645 whole entry): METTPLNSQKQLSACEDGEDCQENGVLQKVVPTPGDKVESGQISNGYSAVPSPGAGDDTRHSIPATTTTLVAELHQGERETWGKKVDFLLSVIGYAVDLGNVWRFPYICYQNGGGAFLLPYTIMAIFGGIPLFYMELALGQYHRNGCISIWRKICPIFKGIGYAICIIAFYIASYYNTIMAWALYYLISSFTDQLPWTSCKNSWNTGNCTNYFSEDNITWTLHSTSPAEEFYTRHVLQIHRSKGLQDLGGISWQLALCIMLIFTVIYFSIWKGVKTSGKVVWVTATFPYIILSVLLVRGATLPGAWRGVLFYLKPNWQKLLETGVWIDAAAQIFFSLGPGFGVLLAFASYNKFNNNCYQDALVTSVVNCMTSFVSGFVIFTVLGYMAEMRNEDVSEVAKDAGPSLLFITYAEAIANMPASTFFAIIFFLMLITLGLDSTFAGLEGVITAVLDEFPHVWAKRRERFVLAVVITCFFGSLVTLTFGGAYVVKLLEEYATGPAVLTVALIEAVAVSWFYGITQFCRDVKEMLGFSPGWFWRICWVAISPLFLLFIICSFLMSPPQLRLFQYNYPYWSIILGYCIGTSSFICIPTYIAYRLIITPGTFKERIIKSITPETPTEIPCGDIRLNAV

| Compound | IC50 [1] [µM] | IC50 [2] [µM] | inhibition [3] | inhibition [4] | inhibition (Mu-type opioid receptor [5]) [%] | also measured |
| --- | --- | --- | --- | --- | --- | --- |
| CCc1ccc2c(c1)[C@]13CCCC[C@@H]1[C@H](C2)N(CC)CC3 | 9.87 | 2300 | 24% | 5% | 10 | – |
| CC(O)c1ccc2c(c1)[C@]13CCCC[C@@H]1[C@H](C2)N(C)CC3 (some centres not stated) | – | 1090 | 39% | inactive | 8 | – |
| COC(=O)c1ccc2c(c1)[C@]13CCCC[C@@H]1[C@H](C2)N(C)CC3 | 4.77 | 17 | 12% | inactive | – | inhibition (Mu-type opioid receptor [5]; filed as agonist): 88% |
| c1ccc2cc([C@]34CNC[C@H]3C4)ccc2c1 [CENTANAFADINE] | – | 90 | – | – | – | IC50 [6]: 0.01 µM; IC50 [7]: 0.06 µM; Activity (Mu-type opioid receptor [5]): inactive |
| c1ccc2c(c1)C[C@@H]1NCC[C@]23CCCC[C@H]13 | – | 8300 | 14% | 20% | – | inhibition (Mu-type opioid receptor [5]; filed as agonist): 95%; IC50 [8]: 0.43 µM |
| COc1ccc2c(c1)[C@]13CCCC[C@@H]1[C@H](C2)NCC3 | 0.3 | 1170 | 44% | 4% | 23 | – |
| CCOc1ccc2c(c1)[C@]13CCCC[C@@H]1[C@H](C2)N(C)CC3 | 1.81 | 15 | 33% | 10% | 26 | – |
| CN1CC[C@@]23CCCC[C@@H]2[C@@H]1Cc1ccccc13 | 2.96 | 333 | – | 15% | 39 | IC50 [6]: 17.3 µM |
| CC(=O)c1ccc2c(c1)[C@]13CCCC[C@@H]1[C@H](C2)N(C)CC3 | > 40 | 130 | inactive | inactive | – | inhibition (Mu-type opioid receptor [5]; filed as agonist): 87% |
| CN1CC[C@@]23CCCC[C@@H]2[C@@H]1Cc1ccc(NC(=O)c2ccccc2)cc13 | 2.2 | 7600 | inactive | 15% | 14 | – |
| CCN1CC[C@@]23CCCC[C@@H]2[C@@H]1Cc1ccccc13 | 4.92 | 11300 | 23% | inactive | – | inhibition (Mu-type opioid receptor [5]; filed as agonist): 40% |
| CCN1CC[C@@]23CCCC[C@@H]2[C@@H]1Cc1ccc(O)cc13 | 0.28 | 5400 | – | 12% | 9 | IC50 [6]: 10.6 µM |
| CN1CC[C@@]23CCCC[C@@H]2[C@@H]1Cc1ccc(C(C)(C)O)cc13 | > 40 | 9000 | inactive | inactive | 11 | – |
| CN1CC[C@@]23CCCC[C@@H]2[C@@H]1Cc1ccc(O)cc13 [DEXTRORPHAN] | 0.28 | 633 | – | inactive | – | IC50 [6]: 2.84 µM |
| Cc1ccc2c(c1)[C@]13CCCC[C@@H]1[C@H](C2)NCC3 | 0.28 | 2090 | – | inactive | 16 | IC50 [6]: 5.72 µM |
| CCc1ccc2c(c1)[C@]13CCCC[C@@H]1[C@H](C2)NCC3 | 0.5 | 1890 | – | inactive | 33 | IC50 [6]: 4.71 µM |
| Cc1ccc2c(c1)[C@]13CCCC[C@@H]1[C@H](C2)N(C)CC3 [DIMEMORFAN] | 2.96 | 148 | – | inactive | 21 | IC50 [6]: 1.22 µM; Ratio IC50 [9]: 20 |
| CNc1ccc2c(c1)[C@]13CCCC[C@@H]1[C@H](C2)N(C)CC3 | 6.23 | 577 | 25% | 10% | 14 | – |
| CN1CC[C@@]23CCCC[C@@H]2[C@@H]1Cc1ccc(NC=O)cc13 | 3.07 | 270 | inactive | 6% | 33 | – |
| CN1CC[C@@]23CCCC[C@@H]2[C@@H]1Cc1ccc(C(=O)NC2CC2)cc13 | 9.23 | 5660 | inactive | 6% | – | inhibition (Mu-type opioid receptor [5]; filed as agonist): 60% |
| CNC(=O)c1ccc2c(c1)[C@]13CCCC[C@@H]1[C@H](C2)N(C)CC3 | 19.9 | 335 | 12% | 15% | 25 | – |
| CCOc1ccc2c(c1)[C@]13CCCC[C@@H]1[C@H](C2)N(CC)CC3 | 1.3 | 2000 | 26% | 6% | 4 | – |
| CC(=O)Nc1ccc2c(c1)[C@]13CCCC[C@@H]1[C@H](C2)N(C)CC3 | 2.17 | 435 | inactive | 19% | 36 | CLhep predicted [10]: 25.3 mL/min/kg; CLint scaled [11]: 35.1 mL/min/kg; half-life [12]: 267 min; hepatic extraction ratio at 1 h [13]: 0.281; half-life [14]: 51.6 min; Tmax [15]: 11.4 min; Cmax [16]: 1040 ng/mL; AUC(0-t) at 24 h [17]: 1220 ng·h/mL; AUC(0-inf) [18]: 1220 ng·h/mL; MRT last at 24 h [19]: 62.4 min; half-life [20]: 44.4 min; Tmax [21]: 4.8 min; Cmax [22]: 1680 ng/mL; AUC(0-t) at 24 h [23]: 1080 ng·h/mL; AUC(0-inf) [24]: 1080 ng·h/mL; MRT inf [25]: 40.8 min; Activity (Mus musculus): Dose-dependent-effect |
| CN1CC[C@@]23CCCC[C@@H]2[C@@H]1Cc1ccc(C(N)=O)cc13 | 3.01 | 123 | 12% | inactive | – | EC50 (Mu-type opioid receptor [26]): 25 µM |
| CCc1ccc2c(c1)[C@]13CCCC[C@@H]1[C@H](C2)N(C)CC3 | 5.18 | 238 | – | 13% | 23 | IC50 [6]: 4.9 µM |
| Cc1ccc(Sc2ccccc2N2CCNCC2)c(C)c1 [VORTIOXETINE] | – | – | – | – | – | IC50 at 48 h [27]: 8.1 µM; IC50 at 48 h [28]: 12.2 µM |
| CCOc1ccc2c(c1)[C@]13CCCC[C@@H]1[C@H](C2)NCC3 | 0.34 | 463 | 12% | 16% | 24 | – |
